Reference: patent publication US10179914B2, “CDC25A inhibitor for the treatment of drug resistant cancer or for the prevention of tumor relapse” (INSERM (INSTITUT NATIONAL DE LA SANTÉ ET DE LA RECHERCHE …, priority 2014, dated 2019)

Tests used:
[1] = molecular target: Cdc25C (Homo sapiens, UniProt P30307); conditions: cited from earlier work
[2] = with these regimens; cited from earlier work
[3] = system: FLT3-ITD cells; assay: Cell death and cell cycle phase at antiproliferative concentrations; assay type: cell-based, human; conditions: at concentrations inhibiting cell proliferation
Procedure: Flow cytometry. Apoptotic cells were detected with Annexin V-FITC detection kit from BD Pharmingen (San Diego, Calif., USA) according to the manufacturer instructions. To evaluate AML cell differentiation, cells were stained for 30 min with the following anti-human monoclonal antibodies: CD11b-PE (Beckman Coulter), CD14-FITC (BD Biosciences), CD15-APC (BD Biosciences). For patient samples, additional hCD45-APC-H7 (BD Biosciences), Annexin V-Pacific Blue (BioLegend, San Diego, Calif., USA) and 7-AAD (Sigma) were used; and for bone marrow mice cells, additional CD33-FITC, CD44-PE Cy7, mCD45-PerCP Cy 5.5, CD14-Alexa 700 were used. Data were collected on a LSRII or a LSRFortessa cytometer (BD Biosciences), and analyzed with FlowJo software. A minimum of 10,000 events was collected.

[4] = system: K562 cells (FLT3 negative); assay: Cell proliferation, trypan blue counting, K562; assay type: cell-based, human; conditions: 200 nM
Procedure: (§1) (a) MV4-11 and MOLM-14 FLT3-ITD positive cells, KG1, HL-60 and TF-1 FLT3 wild type cells, and K562 FLT3 negative cells were cultured in the presence of the CDC25 inhibitor IRC-083864 (200 nM). Cells were harvested each day and counted after trypan blue coloration. The graph represents three independent experiments.
Cell lines and reagents. Human acute myeloid leukemia cell lines MOLM-14 (Matsuo Y et al, Leukemia 1997) (kindly provided by Martin Carroll, University of Pennsylvania, Philadelphia, Pa., USA) MV4-11, K562 (ACC-102 and ACC-10, DSMZ, Braunschweig, Germany) and FLT3-ITD-expressing murine BaF3 cells were cultured in RPMI 1640 medium (Gibco, Life Technologies, Carlsbad, Calif., USA) supplemented with 10% fetal bovine serum (Sigma, Saint Louis, Calif., USA). TF-1 (ATCC-CRL2003) cells were cultured in RPMI 1640 medium with 10% fetal bovine serum and GM-CSF 2 ng/ml. Concerning MOLM-14 cell line, the presence of a monoallelic 21 bp FLT3-ITD mutation and of an MLL-containing ins(11; 9)(q23;p22p23) were verified (Hematology laboratory of Toulouse University Hospital, Prof E. Delabesse and Dr I. Luquet). KG1 and HL-60 (ACC-14 and ACC-3, DSMZ) cell lines were grown in Iscove's Modified Dulbecco's Medium (IMDM, Gibco) plus 20% FBS. All cells were grown in the presence of 100 units/ml of penicillin and streptomycin (Invitrogen) at 37° C. and 5% CO2.

[5] = system: MV4-11 cells (FLT3-ITD positive); assay: Cell proliferation, trypan blue counting, MV4-11; assay type: cell-based, human; conditions: 200 nM
Procedure: as §1
(b) MOLM-14 and MV4-11 cells were transfected with CDC25A siRNA for 24 hours, and cells were counted after trypan blue coloration (upper panel). The efficiency of CDC25A siRNA was estimated by western blot analysis (lower panel). ns: non specific.
Cell lines and reagents. Human acute myeloid leukemia cell lines MOLM-14 (Matsuo Y et al, Leukemia 1997) (kindly provided by Martin Carroll, University of Pennsylvania, Philadelphia, Pa., USA) MV4-11, K562 (ACC-102 and ACC-10, DSMZ, Braunschweig, Germany) and FLT3-ITD-expressing murine BaF3 cells were cultured in RPMI 1640 medium (Gibco, Life Technologies, Carlsbad, Calif., USA) supplemented with 10% fetal bovine serum (Sigma, Saint Louis, Calif., USA). TF-1 (ATCC-CRL2003) cells were cultured in RPMI 1640 medium with 10% fetal bovine serum and GM-CSF 2 ng/ml. […]
siRNA. […] Twenty-four or forty-eight hours after transfection, cells were counted (trypan blue staining), and western blotting was performed.

[6] = system: human LNCaP xenografts; conditions: intravenous and oral routes; cited from earlier work
[7] = Preliminary toxicity assays in NSG mice; assay type: in vivo
Source text: In vivo experiments. Animals were used in accordance to a protocol reviewed and approved by the Institutional Animal Care and User Ethical Committee of the UMS006 and Region Midi-Pyrénées (Approval#13-U1037-JES08). NOD/LtSz-scid IL-2Rγchainnull (NSG) mice (Sanchez P V et al) were produced at the Genotoul Anexplo platform in Toulouse (France) using breeders obtained from The Charles River Laboratory. Mice were housed in sterile conditions using HEPA filtered micro-isolators and fed with irradiated food and acidified water. Transplanted mice were treated with antibiotics (enrofloxacin) for the duration of the experiment. […] Adult mice (6 or 7-week old) were treated with 20 mg/kg Busulfan (Busilvex, Pierre Fabre, France) by i.p. administration 24 hours before injection of leukemic cells. Cultured MOLM-14 cells were washed in PBS and cleared of aggregates and debris using a 0.2 mm cell filter, and suspended in PBS at a final concentration of 2 million cells per 200 μL of PBS per mouse for i.v. injection. IRC-083864 (5 mg/kg/week) was then administrated to leukemic mice by i.p. injection. Daily monitoring of mice for symptoms of disease (ruffled coat, hunched back, weakness and reduced motility) determined the time of animal euthanasia. Cell differentiation was monitored after two IRC-083864 injections: mice were humanely killed in accordance with IACUC protocols. […]

Chain of Cdc25C (P30307 whole entry): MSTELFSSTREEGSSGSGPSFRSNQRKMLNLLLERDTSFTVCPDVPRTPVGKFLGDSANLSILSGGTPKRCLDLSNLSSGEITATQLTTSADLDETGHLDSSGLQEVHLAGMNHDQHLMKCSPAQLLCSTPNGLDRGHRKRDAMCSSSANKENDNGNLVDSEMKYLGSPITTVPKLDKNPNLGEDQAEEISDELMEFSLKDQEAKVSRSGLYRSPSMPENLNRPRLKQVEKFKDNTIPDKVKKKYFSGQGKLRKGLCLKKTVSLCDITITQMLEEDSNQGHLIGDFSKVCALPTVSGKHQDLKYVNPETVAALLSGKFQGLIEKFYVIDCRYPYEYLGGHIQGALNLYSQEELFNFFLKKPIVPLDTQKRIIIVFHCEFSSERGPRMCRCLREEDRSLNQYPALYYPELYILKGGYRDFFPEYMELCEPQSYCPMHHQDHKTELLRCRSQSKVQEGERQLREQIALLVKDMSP

Q: With Cc1nc2c(s1)C(=O)C=C(NCCCN(C)CCCNC1=CC(=O)c3nc(-c4cc(F)ccc4F)oc3C1=O)C2=O [IRC-083864] as the molecule, how does the “IC50 Cdc25 enzyme type C” value [1] read?
A: The value was “nanomolar range”.

Q: And the apparent toxicity [2]?
A: The apparent toxicity was “No sign of apparent toxicity”.

Q: And the “accumulation in a phase of the cell cycle” value [3]?
A: Its value is “nor accumulation in a particular phase of the cell cycle”.

Q: What about the cell death [3] of the same molecule?
A: The cell death was “did not induce neither significant cell death”.

Q: What about the “proliferation of K562” value [4] of the same molecule?
A: The value was “did not decrease”.

Q: What about the “proliferation of MV4-11” value [5] of the same molecule?
A: Its value is “robust inhibition”.

Q: And the “growth of human LNCaP xenografts” value [6]?
A: The value was “reduces the growth”.

Q: What about the “toxicity in male versus female NSG mice” value [7] of the same molecule?
A: Its value is “higher toxicity”.
